Data: patent US5763433A, “Pharmaceutical compositions containing 3-beta-hydroxylated 6,7-substituted steroid derivatives, and use thereof” (Conservatoire National des Arts et Metiers, priority 1992, dated 1998)

What was measured:
[1] = biological target: T1, nuclear binding of tritiated dexamethazone (glucocorticoid receptors) (Mus musculus, UniProt P06537); test: Displacement of the nuclear binding of tritiated dexamethazone in isolated liver, brain, thymus and spleen cells; design: species or system C57BL/6 mouse; conditions: for Displacement coefficient for nuclear binding of tritiated dexamethazone, Brain: brain cells; for Displacement coefficient for nuclear binding of tritiated dexamethazone, Brain / Displacement coefficient for nuclear binding of tritiated dexamethazone, Liver / Displacement coefficient for nuclear binding of tritiated dexamethazone, Spleen / Displacement coefficient for nuclear binding of tritiated dexamethazone, Thymus: no competitor = zero, unlabelled dexamethazone = 100, mean of triplicate; for Displacement coefficient for nuclear binding of tritiated dexamethazone, Liver: liver cells, 100-fold excess of steroid over 2-80 nM 3H-dexamethazone, 60 min; for Displacement coefficient for nuclear binding of tritiated dexamethazone, Spleen: spleen cells; for Displacement coefficient for nuclear binding of tritiated dexamethazone, Thymus: thymus cells
T1 construct: The liver, brain, spleen and thymus are excised and the cells of each organ are recovered; from tissue; host or cells: isolated cells of liver, brain, spleen and thymus of metyrapone-treated C57BL/6 mice
T1 sequence (P06537 1-792): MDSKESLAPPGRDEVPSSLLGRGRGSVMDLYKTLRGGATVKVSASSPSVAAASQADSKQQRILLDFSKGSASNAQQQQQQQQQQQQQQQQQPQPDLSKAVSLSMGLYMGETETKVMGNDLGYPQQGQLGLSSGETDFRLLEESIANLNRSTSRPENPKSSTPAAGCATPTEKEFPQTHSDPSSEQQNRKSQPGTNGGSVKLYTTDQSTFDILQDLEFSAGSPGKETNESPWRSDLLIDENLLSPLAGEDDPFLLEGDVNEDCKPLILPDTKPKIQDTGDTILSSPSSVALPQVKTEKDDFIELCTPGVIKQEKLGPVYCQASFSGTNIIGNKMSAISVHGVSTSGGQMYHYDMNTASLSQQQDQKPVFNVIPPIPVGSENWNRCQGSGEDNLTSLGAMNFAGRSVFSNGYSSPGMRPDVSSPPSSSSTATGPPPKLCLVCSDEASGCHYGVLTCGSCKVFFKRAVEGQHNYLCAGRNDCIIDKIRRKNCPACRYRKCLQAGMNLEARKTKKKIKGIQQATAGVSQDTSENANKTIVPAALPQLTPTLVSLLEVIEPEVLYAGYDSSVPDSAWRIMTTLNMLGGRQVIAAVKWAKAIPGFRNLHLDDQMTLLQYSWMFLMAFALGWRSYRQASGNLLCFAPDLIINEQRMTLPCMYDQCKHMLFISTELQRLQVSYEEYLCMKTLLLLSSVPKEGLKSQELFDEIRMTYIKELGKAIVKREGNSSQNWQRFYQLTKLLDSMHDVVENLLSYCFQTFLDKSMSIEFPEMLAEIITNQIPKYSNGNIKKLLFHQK
Protocol: The isolated hepatocytes are incubated for 1 hour at room temperature with increasing concentrations (2-80 nM) of ^3 H-dexamethazone (DEX*). […] The hepatocyte nuclei are then isolated and purified and the radioactivity corresponding to the DEX* still bound is measured and expressed in cpm/10 ug of DNA. The area under the curve DEX* corresponds to zero displacement of the radioactivity. The area under the curve DEX*/DEX which corresponds to the displacement of radioactivity by the same molecule is taken arbitrarily as 100. The areas under the curve obtained with the other steroids makes it possible to calculate by interpolation between the areas zero and 100 their displacement coefficients for the nuclear binding of DEX*.
The mice are anesthetized with ether and bled, then perfused intracardially with physiological serum containing collagenase B (0.03 g/100 ml) for 10 minutes. […] The quantities of cells obtained are estimated on the base of the measurement of the DNA contained in the preparations.
The nuclei are recovered and their radioactive content measured as described by the authors cited above.
The area under the curve of tritiated dexamethazone alone is measured and taken as zero. […] The displacement coefficients found for each of the other steroids are calculated by interpolation on this scale, each result being the mean of a triplicate determination.

anti-lysozyme IgG = test: Immunoenzymatic measurement of anti-lysozyme IgG in serum of mice immunized against lysozyme; assay type: in vivo, C57BL/6 mice; conditions: for Optical densities +/- SD, anti-lysozyme IgG, first serial dilution (*): dilution not given, PREG 0,5 g/kg 1 hour before; for Optical densities +/- SD, anti-lysozyme IgG, 1/540 serial dilution: serum 1/540; for Optical densities +/- SD, anti-lysozyme IgG, 1/540 serial dilution / Optical densities +/- SD, anti-lysozyme IgG, 1/180 serial dilution / Optical densities +/- SD, anti-lysozyme IgG, first serial dilution: s.c., mean of 5 mice; for Optical densities +/- SD, anti-lysozyme IgG, 1/540 serial dilution / Optical densities +/- SD, anti-lysozyme IgG, 1/180 serial dilution: doses and timing as E1; for Optical densities +/- SD, anti-lysozyme IgG, 1/180 serial dilution: serum 1/180; for Optical densities +/- SD, anti-lysozyme IgG, first serial dilution: serum dilution not given, PREG 0,5 g/kg, DHEA 1,0 g/kg, ADIOL 125 mg/kg 1 hour before lysozyme, 7-hydroxy-PREG and 7-hydroxy-DHEA 6,25 mg/kg, 7β-hydroxy-DHEA 50,0 mg/kg, 7- and 7β-hydroxy-ADIOL 25,0 mg/kg with lysozyme; for Effect on serum anti-lysozyme IgG (in words): steroid administered s.c. simultaneously with lysozyme
Protocol: The immunity effector effect was tested by subcutaneous injection concomitantly with that of an antigen and the 7-alpha- or 7-beta-hydroxylated derivative into C57BL/6 mice according to a standard immunization protocol (Methods in Enzymology (1980), vol. 70).
The effect of the compound as cellular immunity effector is measured by the quantity of circulating IgG directed against the antigen 21 days after the injection and after a booster injection 14 days layer.
Thirty five groups of five 6-weeks old C57BL/6 mice are given a subcutaneous injection of 200 ug of hen egg white lysozyme on days one and fourteen of the immunization protocol. Solutions of DHEA (Sigma D-4500) in dimethyl sulfoxide (DMSO) are injected in the same manner at variable times before the first injection of lysozyme. Amounts ranging from 0.25 and 2 g/kg are used. Ten other groups of 5 mice are given a subcutaneous injection of 6.25 to 50 mg/kg of 7-alpha-hydroxy-DHEA or 7-beta-hydroxy-DHEA dissolved in DMSO at the same time as the first lysozyme injection. Two groups receive only DMSO with lysozyme (controls). The blanks correspond to one group of 5 mice and are not given an injection.
Three weeks after the first injections the animals, then aged 9 weeks, are decapitated. The blood of each animal is collected and the presence of anti-lysozyme G immunoglobulins (IgG) is measured in serial dilutions of the sera by an immunoenzymatic titration using goat anti-mouse (Fc) IgG immunoglobulin labelled with peroxidase.
A group of 5 mice is given the subcutaneous injection of 125 mg/kg of 5-androstene-3-beta, 17-beta-diol (ADIOL) one hour prior to the first injection of lysozyme, and two groups of 5 mice are treated with 25 mg/kg of 7-alpha-hydroxy-ADIOL or 7-beta-hydroxy-ADIOL at the time of the first lysozyme injection.
DHEA or PREG or ADIOL is injected subcutaneously 1 hour before the first lysozyme injection. The 7-hydroxylated derivatives are administered simultaneously with the lysozyme injection. The immunoenzymatic measurement of the anti-lysozyme IgGs in the serial dilutions of the sera of each animal makes use of goat anti-mouse (Fc) IgG immunoglobulin, labelled with peroxidase in 96-well plates treated with lysozyme. The mean value of the optical densities measured in each group of 5 mice is calculated as well as the standard deviation (SD).

[2] = * calculated from measurements on higher dilutions of the serum, 7-hydroxy-PREG 6,25 mg/kg with lysozyme

CC(=O)[C@H]1CC[C@H]2[C@@H]3[C@H](O)C=C4C[C@@H](O)CC[C@]4(C)[C@H]3CC[C@]12C [7-hydroxy-PREG, 7-alpha-hydroxy-PREG]
Displacement coefficient for nuclear binding of tritiated dexamethazone, Brain ([1]; 100-fold excess of steroid): 38
Displacement coefficient for nuclear binding of tritiated dexamethazone, Liver [1]: 34
Displacement coefficient for nuclear binding of tritiated dexamethazone, Spleen ([1]; 100-fold excess of steroid): 81
Displacement coefficient for nuclear binding of tritiated dexamethazone, Thymus ([1]; 100-fold excess of steroid): 94
Optical densities +/- SD, anti-lysozyme IgG, first serial dilution (*) (anti-lysozyme IgG; [2]): 4,46 ± 0,30
Optical densities +/- SD, anti-lysozyme IgG, 1/180 serial dilution (*) (anti-lysozyme IgG; * calculated from measurements on higher dilutions of the serum, 1/180, 7-hydroxy-PREG 6,25 mg/kg with lysozyme): 2,20 ± 0,14
Optical densities +/- SD, anti-lysozyme IgG, 1/540 serial dilution (anti-lysozyme IgG): 0,77 ± 0,05

C[C@]12CC[C@H](O)C[C@@H]1CC(=O)[C@@H]1[C@@H]2CC[C@]2(C)C(=O)CC[C@@H]12 [Steroid 7-oxo-ISOA, 3-beta-hydroxy-5-alpha-androstane-7,17-dione]
Displacement coefficient for nuclear binding of tritiated dexamethazone, Liver [1]: 84

C[C@]12CC[C@H](O)C[C@@H]1C[C@@H](O)[C@@H]1[C@@H]2CC[C@]2(C)C(=O)CC[C@@H]12 [Steroid 7α-OH-ISOA, 3-beta, 7-alpha-dihydroxy-5-alpha-androstane-17-one]
Displacement coefficient for nuclear binding of tritiated dexamethazone, Liver [1]: 102

CC(=O)[C@H]1CC[C@H]2[C@@H]3[C@@H](O)C=C4C[C@@H](O)CC[C@]4(C)[C@H]3CC[C@]12C [Steroid 7β-OH-PREG, 7-beta-hydroxy-pregnenolone]
Displacement coefficient for nuclear binding of tritiated dexamethazone, Liver [1]: 82

C[C@]12CC[C@H](O)C[C@@H]1C[C@@H](O)[C@@H]1[C@@H]2CC[C@]2(C)[C@@H](O)CC[C@@H]12 [Steroid 7α-OH-ADIOL, 5-alpha-androstane-3-beta, 7-alpha, 17-beta-triol]
Displacement coefficient for nuclear binding of tritiated dexamethazone, Brain ([1]; 100-fold excess of steroid): 96
Displacement coefficient for nuclear binding of tritiated dexamethazone, Liver [1]: 83
Displacement coefficient for nuclear binding of tritiated dexamethazone, Spleen ([1]; 100-fold excess of steroid): 125
Displacement coefficient for nuclear binding of tritiated dexamethazone, Thymus ([1]; 100-fold excess of steroid): 96

CC(=O)[C@H]1CC[C@H]2[C@@H]3CC=C4C[C@@H](O)CC[C@]4(C)[C@H]3CC[C@]12C [PREG, 3-beta-hydroxy-5-pregnen-20-one, reference compound]
Optical densities +/- SD, anti-lysozyme IgG, first serial dilution (*) (anti-lysozyme IgG; [2]): 4,67 ± 1,21
Optical densities +/- SD, anti-lysozyme IgG, 1/180 serial dilution (anti-lysozyme IgG): 1,83 ± 0,48
Optical densities +/- SD, anti-lysozyme IgG, 1/540 serial dilution (anti-lysozyme IgG): 0,56 ± 0,15
Effect on serum concentrations of anti-lysozyme IgG (in words) (anti-lysozyme IgG; steroid administered s.c. at least one hour prior to the injection of lysozyme): increase the serum concentrations of anti-lysozyme IgG

C[C@]12CC[C@H](O)C[C@@H]1C[C@H](O)[C@@H]1[C@@H]2CC[C@]2(C)C(=O)CC[C@@H]12 [Steroid 7β-OH-ISOA, 3-beta, 7-beta-dihydroxy-5-alpha-androstane-17-one]
Displacement coefficient for nuclear binding of tritiated dexamethazone, Liver [1]: 68

C[C@]12CC[C@H](O)C[C@@H]1[C@@H](O)C[C@@H]1[C@@H]2CC[C@]2(C)C(=O)CC[C@@H]12 [Steroid 6α-OH-ISOA, 3-beta, 6-alpha-dihydroxy-5-alpha-androstane-17-one]
Displacement coefficient for nuclear binding of tritiated dexamethazone, Liver [1]: 63

C[C@]12CC[C@H](O)CC1=C[C@H](O)[C@@H]1[C@@H]2CC[C@]2(C)C(=O)CC[C@@H]12 [7β-hydroxy-DHEA, 3-beta, 7-beta-dihydroxy-androst-5-en-17-one]
Displacement coefficient for nuclear binding of tritiated dexamethazone, Brain ([1]; 100-fold excess of steroid): 65
Displacement coefficient for nuclear binding of tritiated dexamethazone, Liver [1]: 80
Optical densities +/- SD, anti-lysozyme IgG, 1/180 serial dilution (anti-lysozyme IgG): 0,31 ± 0,04
Optical densities +/- SD, anti-lysozyme IgG, 1/540 serial dilution (anti-lysozyme IgG): 0,13 ± 0,01
Optical densities +/- SD, anti-lysozyme IgG, first serial dilution (anti-lysozyme IgG): 0,46 ± 0,06
Effect on serum anti-lysozyme IgG (in words) (anti-lysozyme IgG; listed as 7-beta-OH-DHEA): effect equivalent to that of DHEA injected 1 hour before the antigen, but at doses 20 times lower
Effect on serum anti-lysozyme IgG (in words) (anti-lysozyme IgG; listed as 7-beta-hydroxy-DHEA): response identical with that of 1 g/kg of DHEA administered 1 hour prior to that of lysozyme

C[C@]12CC[C@H]3[C@@H]([C@@H](O)C=C4C[C@@H](O)CC[C@@]43C)[C@@H]1CC[C@@H]2O [7β-hydroxy-ADIOL, androst-5-ene-3-beta,7-beta, 17-beta-triol]
Optical densities +/- SD, anti-lysozyme IgG, 1/180 serial dilution (anti-lysozyme IgG): 0,18 ± 0,02
Optical densities +/- SD, anti-lysozyme IgG, 1/540 serial dilution (anti-lysozyme IgG): 0,12 ± 0,01
Optical densities +/- SD, anti-lysozyme IgG, first serial dilution (anti-lysozyme IgG): 0,18 ± 0,06

CC(=O)[C@H]1CC[C@H]2[C@@H]3C(=O)C=C4C[C@@H](O)CC[C@]4(C)[C@H]3CC[C@]12C [Steroid 7-oxo-PREG, 3-beta-hydroxy-5-pregnen-7,20-dione]
Displacement coefficient for nuclear binding of tritiated dexamethazone, Liver [1]: 35

C[C@]12CC[C@H]3[C@@H]([C@H](O)C=C4C[C@@H](O)CC[C@@]43C)[C@@H]1CC[C@@H]2O [7-hydroxy-ADIOL, androst-5-ene-3-beta, 7-alpha, 17-beta-triol]
Displacement of tritiated dexamethazone from nuclear binding / anti-glucocorticoid action (in words) ([1]; 100-fold excess of steroid): demonstrates its anti-glucocorticoid effect
Displacement coefficient for nuclear binding of tritiated dexamethazone, Liver [1]: 88
Optical densities +/- SD, anti-lysozyme IgG, 1/180 serial dilution (anti-lysozyme IgG): 0,14 ± 0,01
Optical densities +/- SD, anti-lysozyme IgG, 1/540 serial dilution (anti-lysozyme IgG): 0,11 ± 0,01
Optical densities +/- SD, anti-lysozyme IgG, first serial dilution (anti-lysozyme IgG): 0,15 ± 0,02

C[C@]12CC[C@H](O)CC1=CC(=O)[C@@H]1[C@@H]2CC[C@]2(C)C(=O)CC[C@@H]12 [Steroid 7-oxo-DHEA, 3-beta-hydroxy-5-androsten-7,17-dione]
Displacement coefficient for nuclear binding of tritiated dexamethazone, Liver [1]: 28
